Assay results: ChEMBL document CHEMBL1268983, “Functionalized benzophenone, thiophene, pyridine, and fluorene thiosemicarbazone derivatives as inhibitors of cathepsin L” (Bioorg Med Chem Lett, 2010)

What was measured:
Cathepsin B = Cathepsin B (Homo sapiens, UniProt P07858); assay: Inhibition of human liver cathepsin B after 5 mins by microplate reader analysis
Procathepsin L = Procathepsin L (Homo sapiens, UniProt P07711); assay: Inhibition of human liver cathepsin L after 5 mins by microplate reader analysis
Procathepsin L, sequence (P07711 whole entry): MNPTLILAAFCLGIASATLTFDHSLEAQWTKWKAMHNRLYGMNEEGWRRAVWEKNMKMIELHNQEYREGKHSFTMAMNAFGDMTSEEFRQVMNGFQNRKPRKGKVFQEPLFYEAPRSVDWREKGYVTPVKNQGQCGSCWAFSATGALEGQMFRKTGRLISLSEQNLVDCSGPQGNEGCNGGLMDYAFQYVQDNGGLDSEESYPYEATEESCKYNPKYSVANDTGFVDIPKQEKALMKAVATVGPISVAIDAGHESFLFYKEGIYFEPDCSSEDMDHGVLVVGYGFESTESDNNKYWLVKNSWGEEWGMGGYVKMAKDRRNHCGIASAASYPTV

DU-145 = assay: Cytotoxicity against human DU145 cells after 48 hrs by SRB assay; type: functional; conditions: DU-145, 48 h
NCI-H460 = assay: Cytotoxicity against human NCI-H460 cells after 48 hrs by SRB assay; type: functional; conditions: NCI-H460, 48 h

SMILES	IC50 (Cathepsin B) [µM]	IC50 (Procathepsin L) [µM]	GI50 (DU-145) [µM]	GI50 (NCI-H460) [µM]
NC(=S)N/N=C(/c1cccc(Br)c1)c1cc(Br)cs1	> 10	0.814	–	–
NC(=S)N/N=C(/c1cccc(Br)c1)c1ccc(Br)s1	> 10	0.931	–	–
NC(=S)N/N=C(/c1ccccc1)c1cccnc1	> 10	> 10	–	–
NC(=S)N/N=C(\c1cccnc1)c1cccc(Br)c1	> 10	1	–	–
NC(=S)N/N=C(\c1ccc(Br)nc1)c1cccc(Br)c1	> 10	> 10	–	–
NC(=S)N/N=C(/c1cccc(Br)c1)c1cccnc1Br	> 10	> 10	–	–
NC(=S)N/N=C(/c1cccc(Br)c1)C1CCCCC1	> 10	> 10	–	–
NC(=S)N/N=C(\Cc1ccccc1)c1ccccc1	> 10	5.41	–	–
NC(=S)NN=C1c2ccccc2-c2ccccc21	> 10	> 10	–	–
CC(C)(C)[Si](C)(C)Oc1ccc(/C(=N\NC(N)=S)c2cccc(Br)c2)cc1Br	> 10	> 10	–	–
NC(=S)N/N=C(/c1cccc(Br)c1)c1cc(O)cc(Br)c1	> 10	0.232	–	–
CC(C)(C)[Si](C)(C)Oc1cc(Br)cc(/C(=N\NC(N)=S)c2cccc(Br)c2)c1	> 10	> 10	–	–
NC(=S)N/N=C(/c1cccc(Br)c1)c1cccc(Br)c1O	> 10	> 10	–	–
NC(=S)N/N=C(/c1cccc(Br)c1)c1ccc2c(c1)CCCC2	> 10	9.65	–	–
NC(=S)N/N=C(/c1cccc(Br)c1)c1cccc(OCc2ccccc2)c1	> 10	> 10	–	–
CC(C)(C)[Si](C)(C)Oc1cccc(/C(=N\NC(N)=S)c2cccc(Br)c2)c1	> 10	> 10	–	–
NC(=S)NN=C(c1ccccc1)c1ccccc1 [BENZOPHENONE-THIOSEMICARBAZONE]	> 10	> 10	–	–

Continued, in another order:

IC50 (Cathepsin B) [µM]	IC50 (Procathepsin L) [µM]	SMILES	GI50 (DU-145) [µM]	GI50 (NCI-H460) [µM]
> 10	> 10	NC(=S)NN=C1c2cc(Br)ccc2-c2ccc(Br)cc21	–	–
> 10	> 10	NC(=S)N/N=C(/c1ccccc1)c1cccc(O)c1	–	–
> 10	0.131	NC(=S)N/N=C(\c1cccc(O)c1)c1cccc(Br)c1	21.6	23.3
> 10	> 10	NC(=S)N/N=C(/c1ccccc1)c1cccs1	–	–
> 10	0.37	NC(=S)N/N=C(/c1cccc(Br)c1)c1sccc1Br	–	–
1.42	3.6	COc1ccc(/C(=N\NC(N)=S)c2cc(OC)c(OC)c(OC)c2)cc1O	–	–
1.6	0.151	CC(=O)Oc1cccc(/C(=N\NC(N)=S)c2cccc(Br)c2)c1	–	–
9.49	0.126	NC(=S)N/N=C(/c1cccc(Br)c1)c1ccc(O)c(Br)c1	–	–
